According to patent publication US20260274798A1, “PENTAMIDINE ANALOGUE POLYMORPHS, FORMULATIONS, AND METHODS THEREOF” (AURANSA INC., priority 2023, published 2026):
“Also recorded” adds a separate entry of the source.

Experiments:
Type in all cases: physicochemical
[1] = Thermodynamic solubility in water and a pH 7.4 phosphate buffer; settings: slurry agitated at ambient ca. 24 hours, HPLC, diacetate
Experimental: (§1) 25.6 mL of 2-propanol was added to the lyophilized Compound A diacetate salt to form a slurry. The slurry was then temperature cycled between ambient and 40° C. in 4 hour cycles with agitation for ca. 24 hours. The slurry was then filtered and the isolated solids collected into a scintillation vial. A subsample was analyzed by XRPD and the vial was left uncapped to allow the solids to […] at ambient for ca. 24 hours. The material was then re-analyzed by XRPD post-drying and fully characterized using the following techniques: TG/DSC, DSC, DVS with post-DVS XRPD analysis, PLM, FT-IR, ^1H NMR, Purity by HPLC, TG/DSC with post TG/DSC XRPD analysis, and 7 Day Stability Assessment (ca. 10 mg of the material was stored at 40° C./75% RH. 80° C. and ambient light and humidity for 1 week. The solids were then analyzed by XRPD and purity obtained by HPLC). Thermodynamic solubility in water and a pH 7.4 phosphate buffer (The appropriate media was added in 100 μL aliquots to ca. 20 mg of the material to form a slurry. The samples were then sealed and agitated at ambient for ca. 24 hours before being centrifuge filtered. The isolated solids were analyzed by XRPD and the concentration of the mother liquors determined by HPLC).
The material appears highly insoluble in the phosphate buffer with all Forms having a solubility of 0.3 mg/mL except from Form 2 which has a solubility of 0.2 mg/mL.

[2] = Dynamic vapour sorption (DVS) with post-DVS XRPD; settings: 25° C.
Experimental: Approximately, 10-20 mg of sample was placed into a mesh vapour sorption balance pan and loaded into a DVS Intrinsic dynamic vapour sorption balance by Surface Measurement Systems. The sample was subjected to a ramping profile from 40-90% relative humidity (RH) at 10% increments, maintaining the sample at each step until a stable weight had been achieved (dm/dt 0.004%, minimum step length 30 minutes, maximum step length 500 minutes) at 25° C. After completion of the sorption cycle, the sample was dried using the same procedure to 0% RH and then a second sorption cycle back to 40% RH. Two cycles were performed. The weight change during the sorption/desorption cycles were plotted, allowing for the hygroscopic nature of the sample to be determined. XRPD analysis was then carried out on any solid retained.

[3] = 7 Day Stability Assessment (XRPD form and HPLC purity after storage); settings: diacetate; for one-week stability: form by XRPD: 1 week (Form 1: 2 and 7 days)
Experimental: as §1

[4] = Variable humidity X-ray powder diffraction (VH-XRPD); settings: 30° C.
Experimental: XRPD analysis was carried out on a Philips X'Pert Pro Multipurpose diffractometer equipped with a humidity chamber. The samples were scanned between 4 and 36 °2θ using Cu K radiation (α1=1.54060 A; α2=1.54443 A; β=1.39225 A; α1:α2 ratio=0.5) running in Bragg-Brentano geometry (step size 0.008 °2θ) using 40 kV/40 mA generator settings. Measurements were performed at 30° C. during the humidity profile described below: • Initial scan at 40% RH • Humidity increased to 90% RH for 105 minutes (scan after 5 and 105 minutes) • Humidity decreased to 40% RH for 10 minutes (scan after 5 minutes) • Humidity decreased to 5% RH for 60 minutes (scan taken after 60 minutes) • Humidity decreased to 0% RH for 17 hours (scan taken after 17 hours) • Humidity increased to 40% RH for 60 minutes (scan taken at 30 and 60 minutes) • Humidity increased to 60% RH for 105 minutes (scan taken at 5 and 105 minutes) • Humidity increased to 80% RH for 60 minutes (scan taken at 5 and 55 minutes)

solubility ([1]; Water): 44.0 mg/mL | solubility ([1]; pH 7.4 Phosphate Buffer): 0.3 mg/mL | mass uptake at 90% RH ([2]; DVS, 90% RH, diacetate): 8% | hygroscopicity by DVS ([2]; DVS, diacetate): hygroscopic | weight loss on dehydration during DVS ([2]; below 10% RH): 7.3 wt. % | weight increase on form change during DVS ([2]; first sorption cycle at 80% RH): 5.2 wt. % | one-week stability: form by XRPD ([3]; 40° C./75% RH): remained unchanged by XRPD | one-week stability: form by XRPD ([3]; 80° C.): convert to Form 1 | one-week stability: form by XRPD ([3]; ambient temperature and humidity): remained unchanged by XRPD | 1 Week Stability ([3]; form by XRPD after storage at 40° C./75% RH, ambient or 80° C.): Converts to pattern 1 at 80 °C | form by VH-XRPD ([4]; 90% RH): convert to Form 2 | form by VH-XRPD ([4]; drying at 0% RH): becomes poorly crystalline
SMILES: CC(=O)O.CC(=O)O.N=C(N)c1ccc(OCCCCCOc2ccc(C(=N)N)nc2)cc1 [Form 9, 5-((5-(4-carbamimidoylphenoxy)pentyl)oxy)picolinimidamide diacetate]
form of recovered solid by post-DVS XRPD ([2]; after DVS cycles, diacetate): mixture of phases with peaks matching Form 9 and new peaks | form change during DVS ([2]; first sorption cycle at 80% RH, diacetate): form change to Form 2; also recorded: convert to Form 2
